Test results from patent US9686984B2, “Macrocyclic picolinamides as fungicides” (DOW AGROSCIENCES LLC, priority 2014, dated 2017).

Legend:
Type in all cases: in vivo
Settings in all cases: 100 ppm, 1 Day Protectant
[1] = test system: Erysiphe cichoracearum; assay: Powdery Mildew of Cucumber (ERYSCI) disease control
Experimental: Technical grades of materials were dissolved in acetone, which were then mixed with nine volumes of water containing 110 ppm Triton X-100. The fungicide solutions were applied onto wheat seedlings using an automated booth sprayer to run-off. All sprayed plants were allowed to air dry prior to further handling. All fungicides were evaluated using the aforementioned method for their activity vs. all target diseases, unless stated otherwise. Wheat leaf blotch and brown rust activity were also evaluated using track spray applications, in which case the fungicides were formulated as EC formulations, containing 0.1% Trycol 5941 in the spray solutions. Wheat plants (variety Yuma) were grown from seed in a greenhouse in 50% mineral soil/50% soil-less Metro mix until the first leaf was fully emerged, with 7-10 seedlings per pot. These plants were inoculated with an aqueous spore suspension of Septoria tritici either prior to or after fungicide treatments. After inoculation the plants were kept in 100% relative humidity (one day in a dark dew chamber followed by two to three days in a lighted dew chamber at 20° C.) to permit spores to germinate and infect the leaf. The plants were then transferred to a greenhouse set at 20° C. for disease to develop. When disease symptoms were fully expressed on the 1st leaves of untreated plants, infection levels were assessed on a scale of 0 to 100 percent disease severity. Percent disease control was calculated using the ratio of disease severity on treated plants relative to untreated plants. Example F: Evaluation of Fungicidal Activity: Powdery Mildew of Cucumber (Erysiphe cichoracearum; Bayer Code […]) Cucumber seedlings (variety Bush Pickle) were grown in soil-less Metro mix, with one plant per pot, and used in the test when 12 to 14 days old. Plants were inoculated with a spore suspension 24 hr following fungicide treatments. After inoculation the plants remained in the greenhouse set at 20° C. until disease was fully expressed. […]

[2] = test system: Rhyncosporium secalis; assay: Barley Scald (RHYNSE) disease control
Experimental: (§1) Technical grades of materials were dissolved in acetone, which were then mixed with nine volumes of water containing 110 ppm Triton X-100. The fungicide solutions were applied onto wheat seedlings using an automated booth sprayer to run-off. All sprayed plants were allowed to air dry prior to further handling. All fungicides were evaluated using the aforementioned method for their activity vs. all target diseases, unless stated otherwise. Wheat leaf blotch and brown rust activity were also evaluated using track spray applications, in which case the fungicides were formulated as EC formulations, containing 0.1% Trycol 5941 in the spray solutions. Wheat plants (variety Yuma) were grown from seed in a greenhouse in 50% mineral soil/50% soil-less Metro mix until the first leaf was fully emerged, with 7-10 seedlings per pot. These plants were inoculated with an aqueous spore suspension of Septoria tritici either prior to or after fungicide treatments. After inoculation the plants were kept in 100% relative humidity (one day in a dark dew chamber followed by two to three days in a lighted dew chamber at 20° C.) to permit spores to germinate and infect the leaf. The plants were then transferred to a greenhouse set at 20° C. for disease to develop. When disease symptoms were fully expressed on the 1st leaves of untreated plants, infection levels were assessed on a scale of 0 to 100 percent disease severity. Percent disease control was calculated using the ratio of disease severity on treated plants relative to untreated plants. Example K: Evaluation of Fungicidal Activity: Barley Scald (Rhyncosporium secalis; Bayer Code […]) Barley seedlings (variety Harrington) were propagated in soil-less Metro mix, with each pot having 8 to 12 plants, and used in the test when first leaf was fully emerged. Test plants were inoculated by an aqueous spore suspension of Rhyncosporium secalis 24 hr after fungicide treatments. After inoculation the plants were kept in a dew room at 20° C. with 100% relative humidity for 48 hr. […]

[3] = test system: Blumeria graminis f. sp. hordei; assay: Barley Powdery Mildew (ERYSGH) disease control
Experimental: as §1, with “J:” for “K:”, “Powdery Mildew (Blumeria graminis f. sp. hordei; Synonym: Erysiphe graminis f. sp. hordei;” for “Scald (Rhyncosporium secalis;”, “dusting with infected stock plants” for “an aqueous spore suspension of Rhyncosporium secalis”, “greenhouse set” for “dew room”, “C.” for “C. with 100% relative humidity”, “disease to develop.” for “48 hr.”

| SMILES | ERYSCI disease control, 1DP [1] | RHYNSE disease control, 1DP [2] | ERYSGH disease control, 1DP [3] |
| --- | --- | --- | --- |
| CCCC[C@H]1OCC[C@H](NC(=O)c2nccc(OC)c2OC(C)=O)C(=O)O[C@@H](C)[C@@H]1Cc1ccccc1 [Compound 2] | B (≦70) | A (>70) | B (≦70) |
| COc1ccnc(C(=O)N[C@H]2CCO[C@H](Cc3ccccc3)[C@@H](Cc3ccccc3)[C@H](C)OC2=O)c1OC(C)=O [Compound 3] | B (≦70) | B (≦70) | B (≦70) |
| CCC[C@H]1OCC[C@H](NC(=O)c2nccc(OC)c2OCOC(C)=O)C(=O)O[C@@H](C)[C@@H]1Cc1ccccc1 [Compound 17] | B (≦70) | B (≦70) | B (≦70) |
